The supplement of paper PMC13380429

What was measured:
Settings in all cases: 72 h
Caco-2 [1] = test: cell viability relative to DMSO; higher = less toxic
HepG2 [2] = test: as above
U2OS [3] = test: as above
Calu-3 [4] = test: as above
Vero E6 [5] = test: as above
HepG2 [6] = test: relative viability EC50 (midpoint between 100% and the lowest measured viability); higher = less toxic
U2OS [7] = test: as above
Vero E6 [8] = test: as above
Caco-2 [9] = test: drug sensitivity score (DSS) for viability; higher = more toxic; extreme values may be limits of the assay
HepG2 [10] = test: as above
U2OS [11] = test: as above
Calu-3 [12] = test: as above
Vero E6 [13] = test: as above
Calu-3 [14] = test: relative viability EC50 (midpoint between 100% and the lowest measured viability); higher = less toxic

SMILES	cell viability (Caco-2 [1]; 1 nM)	cell viability (Caco-2 [1]; 10 nM)	cell viability (Caco-2 [1]; 100 nM)	cell viability (Caco-2 [1]; 1000 nM)	cell viability (Caco-2 [1]; 10000 nM)	cell viability (HepG2 [2]; 1 nM)	cell viability (HepG2 [2]; 10 nM)	cell viability (HepG2 [2]; 100 nM)	cell viability (HepG2 [2]; 1000 nM)	cell viability (HepG2 [2]; 10000 nM)	cell viability (U2OS [3]; 1 nM)	cell viability (U2OS [3]; 10 nM)	cell viability (U2OS [3]; 100 nM)	cell viability (U2OS [3]; 1000 nM)	cell viability (U2OS [3]; 10000 nM)	cell viability (Calu-3 [4]; 1 nM)	cell viability (Calu-3 [4]; 10 nM)	cell viability (Calu-3 [4]; 100 nM)	cell viability (Calu-3 [4]; 1000 nM)	cell viability (Calu-3 [4]; 10000 nM)	cell viability (Vero E6 [5]; 1 nM)	cell viability (Vero E6 [5]; 10 nM)	cell viability (Vero E6 [5]; 100 nM)	cell viability (Vero E6 [5]; 1000 nM)	cell viability (Vero E6 [5]; 10000 nM)	relative viability EC50 (HepG2 [6])	relative viability EC50 (U2OS [7])	relative viability EC50 (Vero E6 [8])	drug sensitivity score (Caco-2 [9])	drug sensitivity score (HepG2 [10])	drug sensitivity score (U2OS [11])	drug sensitivity score (Calu-3 [12])	drug sensitivity score (Vero E6 [13])	relative viability EC50 (Calu-3 [14])
CCn1c(-c2nonc2N)nc2c(C#CC(C)(C)O)ncc(OC[C@H]3CCCNC3)c21	92.9%	86.7%	101%	72.1%	69.3%	94.8%	98.1%	96.5%	94.5%	99.4%	96.3%	93.3%	98.1%	87.5%	85.9%	102%	98.2%	92.2%	69.5%	73.5%	96.5%	96%	95.5%	95.1%	111%	> 10 µM	> 10 µM	> 10 µM	4.7	0	0.3	6.3	0	
COc1ccc(CCCO[C@@H](Cn2ccnc2)c2ccc(OC)cc2)cc1	93.4%	95%	100%	93.5%	52.6%	101%	104%	95.4%	106%	34%	97.4%	96.7%	99.3%	99.4%	35.9%						94.5%	104%	96.5%	98%	50.1%	3.59 µM	3.1 µM		3.6	3.2	3.6		2.9	
Cc1cc(I)ccc1Nc1c(C(=O)NOCC2CC2)cc(F)c(F)c1F	93.3%	99.5%	98.3%	75%	54.8%	88.7%	107%	94%	55.5%	21.1%	100%	97.1%	99.8%	89.6%	74.7%	97.2%	100%	103%	80.3%	45.1%	89.6%	100%	90.4%	77%	52.6%	0.814 µM			5.2	9.7	2.3	5.7	5.2	1.26 µM
C[C@@H]1CCCN1CCc1cc2cc(-c3ccc(C#N)cc3)ccc2o1 [ABT-239]	86.8%	106%	93.4%	97.2%	68.1%	105%	92.9%	94.8%	90.9%	75.9%	96.3%	101%	97.9%	102%	87%	95.5%	96.1%	106%	111%	58.9%	89.8%	94.9%	92%	91.2%	91.8%	> 10 µM	> 10 µM	> 10 µM	1.9	1.4	0.1	1.5	0	
CCC[C@@H]1C[C@@H](C(=O)N[C@@H]([C@H]2O[C@H](SC)[C@H](OP(=O)(O)O)[C@@H](O)[C@H]2O)[C@H](C)Cl)N(C)C1 [Clindamycin phosphate]																														0	0	0	0	
OC[C@H]1O[C@H](O[C@H]2[C@H](O)[C@@H](O)[C@H](O)O[C@@H]2CO)[C@H](O)[C@@H](O)[C@@H]1O [D-(+)-maltose]																														0	0		0	
N[C@H](CO)C(=O)O [D-serine]																														0	0	0	0	
CCNC(=O)C[C@@H]1N=C(c2ccc(Cl)cc2)c2cc(OC)ccc2-n2c(C)nnc21 [I-BET-762]	94.8%	100%	88.6%	91.3%	72.8%	111%	112%	98.8%	64.9%	50.2%	94.7%	101%	90%	87.9%	47.8%	104%	116%	104%	93.7%	60.8%	98.1%	104%	104%	59.9%	15.9%		1.69 µM	1.04 µM	2	6.9	4.5	3	9.8	
N#Cc1c(N)nc(SCc2ncc[nH]2)c(C#N)c1-c1ccc(O)cc1 [LUF-5834]						102%	115%	103%	105%	98.6%																> 10 µM				0				
CC1(N)CCN(c2cnc(-c3cccc(Cl)c3Cl)c(N)n2)CC1 [SHP099]	94.1%	113%	90.9%	91.9%	56.4%	91.2%	84.8%	103%	93.5%	82%	93.8%	95.4%	91.9%	98.4%	90.2%	101%	98.3%	104%	82.2%	64.7%	103%	93.2%	106%	92.2%	78.9%	> 10 µM	> 10 µM	> 10 µM	3.6	0.2	0	3.9	1.6	
CC(C)Oc1ccc(-c2nn([C@@H](C)c3oc4ccc(F)cc4c(=O)c3-c3cccc(F)c3)c3ncnc(N)c23)cc1F [TGR-1202]						101%	108%	108%	111%	98.2%																> 10 µM				0				
NC12CC3CC(CC(C3)C1)C2 [amantadine]																														0	0	0	0	
N=C(N)NC(=O)c1nc(Cl)c(N)nc1N [amiloride]																														0	0	0	0	
CCC[C@H]1C(=O)N2C(N(C)C)=Nc3ccc(C)cc3N2C1=O [azapropazone]																														0	0	0	0	
OCCNC1CCCc2c1[nH]c1ccc(-c3ccccc3)cc21 (centres undefined) [casin]	106%	97.4%	99.4%	96.3%	69.8%	94.7%	97.6%	87.5%	94.7%	52.4%	107%	102%	105%	102%	79%	96.3%	97.4%	97.1%	106%	69.1%	102%	106%	106%	98.9%	77.7%		> 10 µM	> 10 µM	1.9	3.4	0.5	1.1	0.9	
N.N.[Cl][Pt][Cl] [cisplatin]																														0	0	0.2	0	
N=C(N)N [guanidine]						101%	117%	101%	96.2%	105%	105%	106%	105%	99.9%	108%						76.8%	106%	82.2%	110%	69.3%	> 10 µM	> 10 µM			0	0		0.9	
Cc1cccc(C)c1OCC(C)N (centres undefined) [mexiletine]																														0.1	0	0	0	
COc1ccc(C(=O)c2c(C)n(CCN3CCOCC3)c3ccccc23)cc1 [pravadoline]	104%	99.7%	91.9%	95.1%	50.8%	100%	99.9%	108%	100%	99.5%	92%	97.4%	95.5%	99.7%	55.5%						106%	107%	105%	100%	95.7%	> 10 µM		> 10 µM	3.4	0	2.3		0	
CCOC(=O)[C@H](CCc1ccccc1)N[C@@H](C)C(=O)N1[C@H](C(=O)O)C[C@@H]2CCC[C@@H]21 [ramipril]																														0	0	0	0	
Cc1cc(C)nc(NS(=O)(=O)c2ccc(N)cc2)n1 [sulfamethazine]																														0	0	0	0	
Nc1ccc(S(=O)(=O)Nc2cnc3ccccc3n2)cc1 [sulfaquinoxaline]																														0	0	0.4	0	
